Experiments:
MDA-MB-231 cells = experiment: Microchannel migration device assay, MDA-MB-231 cells; assay type: cell-based, human
Description: Cell seeding and live cell migration experiments: Cells were grown to continency, trypsinized, and resuspended in serum-free medium at 2×10^6 cells/ml. 50 μl of cell suspension was added to the cell inlet well. Cells were incubated in the device for 5-10 minutes at 37° C. to allow initial cell seeding at the base of “Y” channels. The cell suspension was then removed from the cell inlet port. The device was washed with DPBS before the addition of medium to the inlet ports of the device. In select experiments, PI3K activity was inhibited by the addition of 10 μM LY294002 in the medium through the entire course of migration. The migration chamber was moved to a temperature- and CO2-controlled stage-top live cell incubator (Okolab, Italy) mounted on the motorized stage of an inverted Nikon Eclipse Ti microscope (Nikon, Tokyo, Japan) with automated controls (NIS-Elements, Nikon). Migrating cells were imaged with a 10×-magnification phase contrast objective every 10 minutes for up to 16 hours. Analysis of Cell Migration: Video tiles were exported to Image1 for analysis. All cells that entered the channel were tracked while fully inside the channel and before reaching either end of the channel using the lmageJ MTrackJ plugin at 10 minute intervals. Cells were also dynamically traced with the imageJ polygon ROI capability at 30 minute intervals. Dividing cells were not tracked. Cell position data were used to calculate cell speed over each 10 minute interval, and these speeds were averaged to get an overall average speed for each cell. Additionally, the chemotactic index, defined as the cell displacement divided by the total distance travelled by the cell, was calculated. Cell shape data were used to calculate cell circularity and fit elliptical angle using the Measure function in ImageJ Statistical significance was assessed with non-paired Student's t-test. Cells were further defined as migratory or non-migratory. Migratory cells were defined as those cells which reached the bifurcation in the Y-shaped microchannel; all other cells were defined as non-migratory. […]

Hs578t cells = experiment: Microchannel migration device assay, Hs578t cells; assay type: cell-based; conditions: 10 μM LY294002, 400 μm-long Y-shaped migration channels; control 20±7%
Description: (§1) Cell seeding and live cell migration experiments: Cells were grown to continency, trypsinized, and resuspended in serum-free medium at 2×10^6 cells/ml. 50 μl of cell suspension was added to the cell inlet well. Cells were incubated in the device for 5-10 minutes at 37° C. to allow initial cell seeding at the base of “Y” channels. The cell suspension was then removed from the cell inlet port. The device was washed with DPBS before the addition of medium to the inlet ports of the device. In select experiments, PI3K activity was inhibited by the addition of 10 μM LY294002 in the medium through the entire course of migration. The migration chamber was moved to a temperature- and CO2-controlled stage-top live cell incubator (Okolab, Italy) mounted on the motorized stage of an inverted Nikon Eclipse Ti microscope (Nikon, Tokyo, Japan) with automated controls (NIS-Elements, Nikon). Migrating cells were imaged with a 10×-magnification phase contrast objective every 10 minutes for up to 16 hours. Analysis of Cell Migration: Video tiles were exported to Image1 for analysis. All cells that entered the channel were tracked while fully inside the channel and before reaching either end of the channel using the lmageJ MTrackJ plugin at 10 minute intervals. Cells were also dynamically traced with the imageJ polygon ROI capability at 30 minute intervals. Dividing cells were not tracked. […]

Bt549 cells = experiment: Microchannel migration device assay, Bt549 cells; assay type: cell-based; conditions: 10 μM LY294002, 400 μm-long Y-shaped migration channels; control 32±8%
Description: as §1

O=c1cc(N2CCOCC2)oc2c(-c3ccccc3)cccc12 [LY294002]
migratory cell population (MDA-MB-231 cells; 10 μM LY294002, 200 μm-long microchannels, control 25%): 65% | ratio of contact guided cells (MDA-MB-231 cells; 10 μM LY294002, 200 μm-long microchannels, control 66%): 93% | percentage of migratory cells (MDA-MB-231 cells; 10 μM LY294002, 400 μm-long Y-shaped migration channels, control 22±3%): 34±8% | percentage of migratory cells (Hs578t cells): 15±2% | percentage of migratory cells (Bt549 cells): 19±1%

Reference: patent US20210379589A1, “Microfluidic Chip For Analysis Of Cell Motility And Methods For Using Same” (The Johns Hopkins University, priority 2013, published 2021)
